Among the test systems are A498 renal; CAKI-1 renal; HOP-92 NSCLC; HT29 colon; RXF 393 renal; SK-MEL-2 melanoma; SK-MEL-28 melanoma; U251 CNS; UACC-62 melanoma.
Assay in all cases: NCI tumour cell line growth inhibition, 48 h

Each structure is given as a SMILES string.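 Five compound concentrations were applied to cells in 96-well plates for 48 hours; endpoints were derived by simple linear interpolation of the resulting dose-response curve. GI50 = concentration required for 50% inhibition of growth. At the TGI there is no net growth.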 A value given as a limit tells only on which side of the number the result lay.

In the case of `COc1ccccc1CC1(O)OC(=O)c2ccccc21` (stereo not drawn), the TGI in the test with A498 renal, with CAKI-1 renal, in the test with HOP-92 NSCLC, with HT29 colon, in the test with RXF 393 renal and with SK-MEL-2 melanoma was above 100 µM in each case. Also, the TGI in the test with SK-MEL-28 melanoma, with U251 CNS and with UACC-62 melanoma was above 100 µM in each case.
Regarding `Clc1ccc(C2=Cc3nc2c(-c2ccccc2)c2ccc([nH]2)c(-c2ccccc2)c2nc(c(-c4ccccc4)c4ccc([nH]4)c3-c3ccccc3)C=C2)cc1`, the TGI is above 62.5 µM in the test with A498 renal; 49.9 µM in the test with CAKI-1 renal; above 62.5 µM in the test on HOP-92 NSCLC; above 62.5 µM in the test on HT29 colon; above 62.5 µM with RXF 393 renal; above 62.5 µM with SK-MEL-2 melanoma. The TGI with SK-MEL-28 melanoma, with U251 CNS and in the test with UACC-62 melanoma was above 62.5 µM in each case.
Turning to `CCOC(=O)COc1cc(-c2ccccc2)nc2cc(F)ccc12`, the TGI in the test with A498 renal, with CAKI-1 renal, in the test on HOP-92 NSCLC, in the test with HT29 colon, in the test with RXF 393 renal and with SK-MEL-2 melanoma was above 100 µM each time. In addition, the TGI in the test with SK-MEL-28 melanoma, in the test on U251 CNS and in the test with UACC-62 melanoma was above 100 µM in each case.
As for `Cc1cc(=O)[nH]c(Sc2ccc([N+](=O)[O-])cc2[N+](=O)[O-])n1`, the TGI in the test with A498 renal is above 100 µM; in the test with CAKI-1 renal, 28.9 µM; with HOP-92 NSCLC it was 19.2 µM; in the test with HT29 colon, 19.1 µM; in the test with RXF 393 renal, 26.1 µM; with SK-MEL-2 melanoma, 46.4 µM. Moreover, the TGI in the test with SK-MEL-28 melanoma came out at 38.4 µM; in the test on U251 CNS, 46.3 µM; in the test on UACC-62 melanoma it was 41.4 µM.
On to `CN1CCN(c2ccc3nc(-c4ccc5nc(CCCc6ccc(N(CCCl)CCCl)cc6)[nH]c5c4)[nH]c3c2)CC1`, for which the TGI with A498 renal, with CAKI-1 renal, with HOP-92 NSCLC, with HT29 colon, in the test on RXF 393 renal and in the test with SK-MEL-2 melanoma was above 100 µM each time. In addition, the TGI with SK-MEL-28 melanoma, in the test on U251 CNS and with UACC-62 melanoma was above 100 µM each time.
For the compound `COc1cc(/C=C/C(=O)N[C@@H]2C(=O)N3[C@@H]2SC(C)(C)[C@@H]3C(=O)O)ccc1O`, the TGI in the test on A498 renal, in the test with CAKI-1 renal, in the test with HOP-92 NSCLC, with HT29 colon, in the test with RXF 393 renal and in the test with SK-MEL-2 melanoma was above 100 µM throughout. Further, the TGI in the test on SK-MEL-28 melanoma, in the test with U251 CNS and in the test on UACC-62 melanoma was above 100 µM throughout.
Consider `CCCCCCCCCCCCCCCCCCOC(COP(=O)(O)OCC1OC(n2cc(F)c(=O)[nH]c2=O)CC1O)COP(=O)(O)OCC1OC(n2ccc(N)nc2=O)C(O)C1O` (stereo not drawn), for which the TGI in the test with A498 renal is above 100 µM; in the test on CAKI-1 renal it was above 100 µM; with HOP-92 NSCLC, above 94.8 µM; with HT29 colon it was above 100 µM; in the test with RXF 393 renal it was 49.6 µM; with SK-MEL-2 melanoma, above 100 µM. The TGI is above 100 µM with SK-MEL-28 melanoma, 50.7 µM in the test with U251 CNS and above 100 µM in the test with UACC-62 melanoma.
In the case of `Cc1ccc(C2SCc3nc4ccccc4n32)cc1` (stereo not drawn), the TGI in the test with A498 renal was 9.04 µM; with CAKI-1 renal it was 49.7 µM; in the test on HOP-92 NSCLC, 70 µM; in the test on HT29 colon it was 79 µM; with RXF 393 renal, 6.33 µM; in the test with SK-MEL-2 melanoma, 5.56 µM. Moreover, the values for the TGI in the test on SK-MEL-28 melanoma, in the test on U251 CNS and in the test on UACC-62 melanoma were above 100 µM, above 100 µM and 21.3 µM, respectively.
For the compound `O=C1/C(=C\c2cccc(Oc3ccccc3)c2)SC(c2ccccc2)N1Cc1ccccc1` (stereo not drawn), the TGI in the test with A498 renal is above 100 µM; in the test on CAKI-1 renal, above 100 µM; with HOP-92 NSCLC, 60 µM; in the test on HT29 colon it was 51.2 µM; in the test on RXF 393 renal, 64 µM; in the test on SK-MEL-2 melanoma, 45.7 µM. Besides, the TGI with SK-MEL-28 melanoma was above 100 µM; with U251 CNS, 64.4 µM; in the test with UACC-62 melanoma, above 100 µM.
On to `COc1c(OC)c(OC)c2c(=O)c(OC)c(-c3ccc4c(c3)OCO4)oc2c1OC`, for which the TGI in the test on A498 renal, in the test with CAKI-1 renal, in the test on HOP-92 NSCLC, in the test with HT29 colon, in the test with RXF 393 renal and with SK-MEL-2 melanoma was above 100 µM throughout. Further, the TGI with SK-MEL-28 melanoma, in the test with U251 CNS and in the test with UACC-62 melanoma was above 100 µM throughout.
For `COC(OC)[C@@H]1OC[C@H](n2ccc(=O)[nH]c2=O)[C@H]1O`, the TGI with A498 renal, in the test with CAKI-1 renal, in the test on HOP-92 NSCLC, in the test with HT29 colon, with RXF 393 renal and in the test on SK-MEL-2 melanoma was above 100 µM throughout. Moreover, the TGI in the test with SK-MEL-28 melanoma, in the test on U251 CNS and with UACC-62 melanoma was above 100 µM in each case.
In the case of `c1cc2nnc1SCCSCCCSCCS2`, the TGI in the test on A498 renal, in the test with CAKI-1 renal, in the test with HOP-92 NSCLC, with HT29 colon, in the test with RXF 393 renal and in the test with SK-MEL-2 melanoma was above 100 µM each time. Further, the TGI with SK-MEL-28 melanoma, in the test with U251 CNS and in the test with UACC-62 melanoma was above 100 µM in each case.
As for `COc1ccc(/C=C2/C(=O)N(/C=C3\C(=O)Oc4ccccc4C3=O)C(=NC(C)=O)N2C)cc1OC`, the GI50 with A498 renal and with HOP-92 NSCLC was above 100 µM each time. Also, the TGI in the test with A498 renal, in the test on CAKI-1 renal, in the test on HOP-92 NSCLC, in the test with HT29 colon, in the test on RXF 393 renal and in the test on SK-MEL-2 melanoma was above 100 µM in each case. Moreover, the TGI with SK-MEL-28 melanoma, in the test on U251 CNS and with UACC-62 melanoma was above 100 µM throughout.
With `CCOC(=O)n1ccc2c(C(=O)OC)c(C(=O)OC)cc(/C(=C/C(=O)OC)C(=O)OC)c21`, the TGI in the test with A498 renal, in the test on CAKI-1 renal, in the test with HOP-92 NSCLC, in the test on HT29 colon, with RXF 393 renal and in the test on SK-MEL-2 melanoma was above 100 µM throughout. The TGI in the test on SK-MEL-28 melanoma, with U251 CNS and with UACC-62 melanoma was above 100 µM each time.

For the origin of these results see PubChem BioAssay (NCI).
